Laboratory results from US20230075856A1, “CYCLIC SULFAMIDE COMPOUNDS FOR TREATMENT OF HBV” (Assembly Biosciences, Inc., priority 2018, published 2023).
Read-outs that look alike come from different tables or passages of the source.

Test system: HBV viral load production from HepAD38 cells
Test: Viral production from HepAD38 cells: viral load in supernatant by qPCR of the HBV core sequence
Format: cell-based
Conditions: 5 days incubation, qPCR of supernatant HBV DNA vs DMSO control, read-out: viral load lowering EC50 (Activity)
Method: Assay Measuring Activity of Test Compounds on Viral Production from HepAD38 Cells
HepAD38 cells grown in a T-150 flask (Corning, cat #: 430825) with Growth Medium (DMEM/F12 […] (Hyclone, cat #: SH30023.02), 1× Pen/Strep (Invitrogen, cat #: 15140-122), 10% FBS (Tissue Culture Biologics, cat #: 101), […] G418 (Alfa Aesar, cat #: J62671), 1 μg/mL Tetracycline (Teknova, cat #: T3320)) were detached with 0.25% trypsin-EDTA (Invitrogen, cat #: 25200-056). Tetracycline-free treatment medium (15 mL DMEM/F12 (1:1) 1× Pen/step, with 2% FBS, Tet-system approved (Clontech, cat #: 631106) were then added to mix, transferred into a 50 ml conical tube (Falcon, cat #: 21008-918,) and spun at 1300 rpm for 5 min. Pelleted cells were then re-suspended/washed with 50 mL of 1×DPBS (Invitrogen, cat #: 14190-136) 2 times and 50 mL treatment medium twice. HepAD38 cells were then re-suspended with 10 mL of treatment medium, syringed and counted. Wells of 96-well clear bottom TC plate (Corning, cat #: 3904,) were seeded at 50,000 cells/well in 180 μL of treatment medium, and 20 μL of either 10% DMSO (Sigma, cat #: D4540) as controls or a 10× solution of test compounds in 10% DMSO in treatment media was added for a final compound concentration starting at 10 μM, and plates were incubated in 5% CO2 incubator at 37° C. for 5 days.
Subsequently viral load production was assayed by quantitative PCR (qPCR) of the HBV core sequence. PCR reaction mixture containing forward primers HBV-f 5′-CTGTGCCTTGGGTGGCTIT-3′ (IDT DNA), Reverse primers HBV-r 5′-[…]-3′ (IDT DNA), Fluorescent TaqMan™ Probes HBV-probe 5′-FAM/AGCTCCAAA/ZEN/[…]/3IABkFQ-3′ (IDT DNA), 10 μL/well of PerfeCTa® qPCR ToughMix® (Quanta Biosciences, Cat #: 95114-05K), and 6 μL/well of DEPC water (Alfa Aesar, cat #: J62087) was prepared. Four μL of supernatant was added to 16 μL of the reaction mixture in a qPCR plate (Applied Biosytems, Cat #: 4309849), sealed with a film (Applied Biosystems, Cat #: 4311971), centrifuged for a few seconds, and subsequently run on an Applied Biosystems VIIA7. The PCR mixture was incubated at 45° C. for 5 min, then 95° C. for 10 min, followed by 40 cycles of 10 seconds at 95° C. and 20 seconds at 60° C. Viral load was quantified against known HBV DNA standards by using ViiA™ 7 Software. Viral load in the supernatant from wells with treated cells were compared against viral load in supernatant from DMSO control wells (≥3 per plate). Cell viability assay was performed with CellTiter-Glo Luminescent Cell Viability Assay (Promega, cat #: G7573) with modification. Mixed appropriate amount of CellTiter-Glo (CTG) 1×DPBS in a 1:1 ratio, added 100 uL of the mixture to each well followed completely removal of all supernatant in each well without touching cell surface. Incubated the plate at room temperature for 10 min on an orbital shaker, and then read the plate with a plate reader (TECAN M1000 or Envision). EC50 or CC50 values were calculated through curve-fitting of the four-parameter nonlinear-logistic-regression model (GraphPad Prism or Dotmatics). CC50 values were all >10 μM.

[1] = Hepatitis B virus, HePAD38, 120 h

`Cc1nc(-c2ccc(F)cc2)sc1CNC(=O)C1CC(C(=O)Nc2ccc(F)c(Cl)c2)N(C)S(=O)(=O)N1` (single isomer, unassigned) [1056-ISOMER-A, N3-(3-chloro-4-fluoro-phenyl)-N5-[[2-(4-fluorophenyl)-4-methyl-thiazol-5-yl]methyl]-2-methyl-1,1-dioxo-1,2,6-thiadiazinane-3,5-dicarboxamide] gave an EC50 [1] of 100 to 10000 nM.

With `Cc1nc(-c2ccc(F)cc2)sc1CNC(=O)C1CC(C(=O)Nc2ccc(F)c(Cl)c2)N(C)S(=O)(=O)N1` (single isomer, unassigned) [1056-ISOMER-B, N3-(3-chloro-4-fluoro-phenyl)-N5-[[2-(4-fluorophenyl)-4-methyl-thiazol-5-yl]methyl]-2-methyl-1,1-dioxo-1,2,6-thiadiazinane-3,5-dicarboxamide] the EC50 was < 50 nM.

For `Cc1cn(-c2ccccc2)nc1CNC(=O)C1CC(C(=O)Nc2ccc(F)c(Cl)c2)N(C)S(=O)(=O)N1` (single isomer, unassigned) [1057-ISOMER-A, N3-(3-chloro-4-fluoro-phenyl)-2-methyl-N5-[(4-methyl-1-phenyl-pyrazol-3-yl)methyl]-1,1-dioxo-1,2,6-thiadiazinane-3,5-dicarboxamide], the EC50 [1] was < 50 nM.

With `Cc1nc(-c2ccccn2)sc1CNC(=O)C1CC(C(=O)Nc2ccc(F)c(Cl)c2)N(C)S(=O)(=O)N1` (single isomer, unassigned) [1065-ISOMER-A, N3-(3-chloro-4-fluoro-phenyl)-2-methyl-N5-[[4-methyl-2-(2-pyridyl)thiazol-5-yl]methyl]-1,1-dioxo-1,2,6-thiadiazinane-3,5-dicarboxamide] the EC50 [1] was 100 to 10000 nM.

For `Cc1nc(-c2ccccn2)sc1CNC(=O)C1CC(C(=O)Nc2ccc(F)c(Cl)c2)N(C)S(=O)(=O)N1` (single isomer, unassigned) [1065-ISOMER-B, N3-(3-chloro-4-fluoro-phenyl)-2-methyl-N5-[[4-methyl-2-(2-pyridyl)thiazol-5-yl]methyl]-1,1-dioxo-1,2,6-thiadiazinane-3,5-dicarboxamide], the EC50 was < 50 nM.

In the case of `CN1C(C(=O)Nc2ccc(F)c(Cl)c2)CC(C(=O)N[C@H](c2ccccc2)c2cnc(Cl)s2)NS1(=O)=O` (single isomer, unassigned) [1066-ISOMER-A], the EC50 [1] is reported as 100 to 10000 nM.

For `CN1C(C(=O)Nc2ccc(F)c(Cl)c2)CC(C(=O)N[C@H](c2ccccc2)c2cnc(Cl)s2)NS1(=O)=O` (single isomer, unassigned) [1066-ISOMER-C], the EC50 [1] was < 50 nM.

Work on `CN1C(C(=O)Nc2ccc(F)c(Cl)c2)CC(C(=O)N[C@@H](c2ccccc2)c2cnc(Cl)s2)NS1(=O)=O` (single isomer, unassigned) [1066-ISOMER-D] yielded an EC50 [1] of 100 to 10000 nM.

For `CN1C(C(=O)Nc2ccc(F)c(Cl)c2)CC(C(=O)NC(c2ccccc2)c2cnc(-c3ccccc3)s2)NS1(=O)=O` (single isomer, unassigned) [1067-ISOMER-A, N3-(3-chloro-4-fluoro-phenyl)-2-methyl-1,1-dioxo-N5-[phenyl-(2-phenylthiazol-5-yl)methyl]-1,2,6-thiadiazinane-3,5-dicarboxamide], the EC50 [1] was < 50 nM.

`CN1C(C(=O)Nc2ccc(F)c(Cl)c2)CC(C(=O)N[C@@H](c2ccccc2)c2cnc(-c3ccccc3)s2)NS1(=O)=O` (single isomer, unassigned) [1067-ISOMER-B] gave an EC50 [1] of 100 to 10000 nM.

For `CN1C(C(=O)Nc2ccc(F)c(Cl)c2)C[C@@H](C(=O)N[C@H](c2ccccc2)c2cnc(-c3ccccc3)s2)NS1(=O)=O` (single isomer, unassigned) [1067-ISOMER-C], the EC50 [1] was < 50 nM.

`CN1C(C(=O)Nc2ccc(F)c(Cl)c2)CC(C(=O)N[C@@H](c2ccccc2)c2cnc(-c3ccccc3)s2)NS1(=O)=O` (single isomer, unassigned) [1067-ISOMER-D] was tested, and the EC50 [1] was 100 to 10000 nM.

For `CN1C(C(=O)Nc2ccc(F)c(Cl)c2)CC(C(=O)NC(c2ccccc2)c2cnc(-c3ccccc3Cl)s2)NS1(=O)=O` (single isomer, unassigned) [1068-ISOMER-A, N3-(3-chloro-4-fluoro-phenyl)-N5-[[2-(2-chlorophenyl)thiazol-5-yl]-phenyl-methyl]-2-methyl-1,1-dioxo-1,2,6-thiadiazinane-3,5-dicarboxamide], the EC50 [1] was < 50 nM.

With `CN1C(C(=O)Nc2ccc(F)c(Cl)c2)CC(C(=O)N[C@@H](c2ccccc2)c2cnc(-c3ccccc3Cl)s2)NS1(=O)=O` (single isomer, unassigned) [1068-ISOMER-B] the EC50 [1] was 50 to 100 nM.

For `CN1C(C(=O)Nc2ccc(F)c(Cl)c2)C[C@@H](C(=O)N[C@H](c2ccccc2)c2cnc(-c3ccccc3Cl)s2)NS1(=O)=O` (single isomer, unassigned) [1068-ISOMER-C], the EC50 [1] was < 50 nM.

For `CN1C(C(=O)Nc2ccc(F)c(Cl)c2)CC(C(=O)N[C@@H](c2ccccc2)c2cnc(-c3ccc(Cl)cc3)s2)NS1(=O)=O` (single isomer, unassigned) [1068-ISOMER-D], the EC50 [1] was 100 to 10000 nM.

For `CN1C(C(=O)Nc2ccc(F)c(Cl)c2)CC(C(=O)NCc2nn(-c3ccccc3)c3ccccc23)NS1(=O)=O` (single isomer, unassigned) [1072-ISOMER-A, N3-(3-chloro-4-fluoro-phenyl)-2-methyl-1,1-dioxo-N5-[(1-phenylindazol-3-yl)methyl]-1,2,6-thiadiazinane-3,5-dicarboxamide], the EC50 [1] was < 50 nM.

For `CN1C(C(=O)Nc2ccc(F)c(Cl)c2)CC(C(=O)NCc2nn(-c3ccccc3)c3ccccc23)NS1(=O)=O` (single isomer, unassigned) [1072-ISOMER-B, N3-(3-chloro-4-fluoro-phenyl)-2-methyl-1,1-dioxo-N5-[(1-phenylindazol-3-yl)methyl]-1,2,6-thiadiazinane-3,5-dicarboxamide], the EC50 was 100 to 10000 nM.

`CN1C(C(=O)Nc2ccc(F)c(Cl)c2)CC(C(=O)NCc2sc(-c3ccccc3F)nc2C(F)(F)F)NS1(=O)=O` (single isomer, unassigned) [1082-ISOMER-A, N3-(3-chloro-4-fluoro-phenyl)-N5-[[2-(2-fluorophenyl)-4-(trifluoromethyl)thiazol-5-yl]methyl]-2-methyl-1,1-dioxo-1,2,6-thiadiazinane-3,5-dicarboxamide] was tested, and the EC50 [1] was < 50 nM.

In the case of `CN1C(C(=O)Nc2ccc(F)c(Cl)c2)CC(C(=O)NCc2sc(-c3ccccc3F)nc2C(F)(F)F)NS1(=O)=O` (single isomer, unassigned) [1082-ISOMER-B, N3-(3-chloro-4-fluoro-phenyl)-N5-[[2-(2-fluorophenyl)-4-(trifluoromethyl)thiazol-5-yl]methyl]-2-methyl-1,1-dioxo-1,2,6-thiadiazinane-3,5-dicarboxamide], the EC50 is reported as 50 to 100 nM.

In the case of `Cc1nc(-c2ccc(F)cc2F)sc1CNC(=O)C1CC(C(=O)Nc2ccc(F)c(Cl)c2)N(C)S(=O)(=O)N1` (single isomer, unassigned) [1083-ISOMER-A, N3-(3-chloro-4-fluoro-phenyl)-N5-[[2-(2,4-difluorophenyl)-4-methyl-thiazol-5-yl]methyl]-2-methyl-1,1-dioxo-1,2,6-thiadiazinane-3,5-dicarboxamide], the EC50 [1] is reported as < 50 nM.

With `CN1C(C(=O)Nc2ccc(F)c(Cl)c2)CC(C(=O)NCc2nn(-c3ccccc3F)c3ccccc23)NS1(=O)=O` (single isomer, unassigned) [1086-ISOMER-A, N3-(3-chloro-4-fluoro-phenyl)-N5-[[1-(2-fluorophenyl)indazol-3-yl]methyl]-2-methyl-1,1-dioxo-1,2,6-thiadiazinane-3,5-dicarboxamide] the EC50 [1] was < 50 nM.

Work on `CN1C(C(=O)Nc2ccc(F)c(Cl)c2)CC(C(=O)NCc2nn(-c3ccccc3F)c3ccccc23)NS1(=O)=O` (single isomer, unassigned) [1086-ISOMER-B, N3-(3-chloro-4-fluoro-phenyl)-N5-[[1-(2-fluorophenyl)indazol-3-yl]methyl]-2-methyl-1,1-dioxo-1,2,6-thiadiazinane-3,5-dicarboxamide] yielded an EC50 of 100 to 10000 nM.
